Assay results as given in publication PMC5400565, “Real-time near-infrared fluorescence imaging using cRGD-ZW800-1 for intraoperative visualization of multiple cancer types” (Oncotarget, 2017).

Assays:
Adrenergic β1 = target: T1, Adrenergic β1 (Homo sapiens, UniProt P08588); assay: Off-target screening (Eurofins Cerep), β1; type: binding
T1 construct: Eurofins Cerep SA (contract screening)

Histamine H1 = target: T2, Histamine H1 (Homo sapiens, UniProt P35367); assay: biochemical; type: binding
T2 construct: Eurofins Cerep SA (contract screening)

Histamine H2 = target: T3, Histamine H2 (Homo sapiens, UniProt P25021); assay: Off-target screening (Eurofins Cerep), H2; type: binding
T3 construct: Eurofins Cerep SA (contract screening)

[1] = target: T4, 5-hydroxytryptamine (serotonin) receptor 2B (5-HT2B) (Homo sapiens, UniProt P41595); assay: Off-target screening (Eurofins Cerep), 5-HT2B; type: binding
T4 construct: Eurofins Cerep SA (contract screening)
Text: Off-target interactions are binding of tracers to other components on the cell surface than the actual target site. These non-specific interactions are often of low affinity and easily missed, but can have significant effects. We outsourced the screening for in vitro for off-target interactions of cRGD-ZW800-1 to Eurofins Cerep SA, Le bois l’Evêque, France. They assessed the percentage of inhibition of a reference compound in 44 selected targets, including G protein-coupled receptors (GPCRs), transporters, ion channels, nuclear receptors, kinases and other non-kinase enzymes. These targets were recommended by four major pharmaceutical companies. The complete list is included in Supplementary Table 1 of the Supplementary Data. Each assay was performed twice using 10 μM cRGD-ZW800-1 and a reference compound. Inhibition higher than 50% was considered to represent a significant effect of cRGD-ZW800-1. Results showing between 20% and 50% were considered weak to moderate effects, while lower than 20% was not considered significant and mostly attributable to variability of the signal around the control level.

5-HT transporter = target: T5, 5-HT transporter (Homo sapiens, UniProt P31645); assay: Off-target screening (Eurofins Cerep), 5-HT transporter; type: binding
T5 construct: Eurofins Cerep SA (contract screen)

Glutamate channels NMDA = Glutamate channels NMDA (Rattus norvegicus, UniProt Q00959); assay: Off-target screening (Eurofins Cerep), NMDA; type: binding
[2] = target: T6, Nicotinic channels N neuronal α4β2 (Homo sapiens, UniProt P17787+P43681); assay: Off-target screening (Eurofins Cerep), N neuronal α4β2; type: binding
T6 construct: Eurofins Cerep SA (contract screen)

COX1 = target: T7, COX1 (Homo sapiens, UniProt P23219); assay: Off-target screening (Eurofins Cerep), COX1; type: biochemical
T7 construct: Eurofins Cerep SA (contract screen)

PDE4D2 = target: T8, PDE4D2 (Homo sapiens, UniProt Q08499); assay: Off-target screening (Eurofins Cerep), PDE4D2; type: biochemical
T8 construct: Eurofins Cerep SA (contract screen)

HT-29 cells = assay: In vitro competition with unlabeled cRGD, HT-29; type: cell-based, human; details: 500 nM cRGD-ZW800-1 + 500 nM unlabeled cRGD (1:1), 37°C, 2 h, vs cells without unlabeled cRGD, triplicate
Experimental: For in vitro competition, U-87 MG (αvβ3 and αvβ5 positive, αvβ6 negative) and HT-29 (αvβ3 negative, αvβ5 and αvβ6 positive) cells were plated in a 96-well plate at a density of ∼40,000 and ∼60,000 cells per well, respectively. Subsequently, 500 nM of cRGD-ZW800-1 was simultaneously added to the cells and incubated at 37°C for 2 h. At the same time, half of the cells were also incubated with 500 nM unlabeled (“cold”) cRGD.
Both the cells in the binding and the competition experiment were then washed twice and imaged with the Odyssey NIR scanner (LI-COR Biosciences, Lincoln, Nebraska: focus offset 3 mm; 800-nm channel). Next, cells were permeabilized with a 40/60 mixture of acetone and methanol followed by a washing step and a 5 min incubation with ToPro3 (1/2000, Invitrogen), a far red fluorescent dye (642/661nm). The wells were then washed and again imaged with the Odyssey scanner (focus offset 3 mm; 700-nm channel) to quantify the number of cells in each well. The experiments were performed in triplicate.

HT-29 colorectal tumors = assay: NIR fluorescence imaging, HT-29 colorectal tumors, dose-ranging; type: in vivo, mice
Experimental: (§1) To induce subcutaneous tumors, colorectal cancer cells (HT-29) were injected at 4 sites on the back (500,000 cells per spot). Subsequently, these colorectal tumor cells were transplanted on the colon of other mice, as described by Tseng et al.. Approximately 500,000 pancreatic tumor cells (BxPC-3) were injected into the pancreas, as previously described by Kim et al.. Approximately 40,000 oral tumor cells (OSC-19) were injected in the tongue, as previously described by van Driel et al.. Approximately 500,000 breast tumor cells (MCF-7) were injected in both sides of the mammary fat pad to induce breast cancer tumors.
(§2) All animals were imaged using a Pearl® imager (LI-COR, Lincoln, NE) and an original FLARE® prototype. Animals with HT-29 tumors were imaged at 4 and 24 h post injection; animals with BxPC-3 and OSC-19 tumors at 4 h only. Animals with MCF-7 tumors were imaged at 0.5, 1, 2, 4, 6, 8, 24 and 48 h post injection. […] TBRs were calculated by dividing the tumor signal by the background signal. […]
(§3) Mice were administered with 0.25 (HT-29 model only), 1.0, 10, or 30 nmol cRGD-ZW800-1 to evaluate tumor signals, biodistribution, and to calculate TBRs (n = 3 per dose group). At 4 h (BxPC-3 model) and 24 h (HT-29 model) after injection, mice were fully dissected and fluorescence intensity of their organs was measured.

BxPC-3 pancreatic tumors = assay: NIR fluorescence imaging, BxPC-3 pancreatic tumors; type: in vivo, mice; details: all three dose groups (1.0, 10, 30 nmol), FLARE and Pearl, skin as background
Experimental: as §1, §2, §3

Potassium Channel hERG = Potassium Channel hERG (Homo sapiens, UniProt Q12809)
[3] = Toxicology study in rats (unpublished data)
tumors = assay: Estimated concentration inside tumors in humans; details: after administering 63 μg/kg, assuming tumor uptake comparable to RGD-PET tracer
[4] = read-out: % Inhibition of Control Specific Binding
[5] = read-out: % of Control Specific Binding Mean
[6] = 10 μM cRGD-ZW800-1, format H, Ag, performed twice, read-out: % Inhibition of Control Specific Binding
[7] = 10 μM, mean of 2, read-out: % of Control Specific Binding Mean

T5 sequence (P31645 whole entry): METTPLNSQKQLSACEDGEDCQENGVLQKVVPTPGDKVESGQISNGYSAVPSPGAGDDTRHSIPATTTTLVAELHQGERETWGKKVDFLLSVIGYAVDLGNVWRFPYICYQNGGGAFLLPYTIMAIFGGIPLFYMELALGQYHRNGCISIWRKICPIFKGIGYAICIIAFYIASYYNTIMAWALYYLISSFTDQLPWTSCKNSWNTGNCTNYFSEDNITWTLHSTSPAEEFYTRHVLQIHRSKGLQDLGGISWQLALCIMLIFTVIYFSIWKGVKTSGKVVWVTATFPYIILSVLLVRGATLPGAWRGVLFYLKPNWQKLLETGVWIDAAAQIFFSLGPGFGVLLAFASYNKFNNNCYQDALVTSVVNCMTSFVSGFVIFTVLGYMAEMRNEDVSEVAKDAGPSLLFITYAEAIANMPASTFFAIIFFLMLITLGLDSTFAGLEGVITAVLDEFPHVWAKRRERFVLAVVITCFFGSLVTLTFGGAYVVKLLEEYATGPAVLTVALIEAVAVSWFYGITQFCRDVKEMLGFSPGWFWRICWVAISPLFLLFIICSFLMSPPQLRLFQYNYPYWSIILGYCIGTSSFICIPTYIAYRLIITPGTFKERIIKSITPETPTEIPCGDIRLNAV
T3 sequence (P25021 whole entry): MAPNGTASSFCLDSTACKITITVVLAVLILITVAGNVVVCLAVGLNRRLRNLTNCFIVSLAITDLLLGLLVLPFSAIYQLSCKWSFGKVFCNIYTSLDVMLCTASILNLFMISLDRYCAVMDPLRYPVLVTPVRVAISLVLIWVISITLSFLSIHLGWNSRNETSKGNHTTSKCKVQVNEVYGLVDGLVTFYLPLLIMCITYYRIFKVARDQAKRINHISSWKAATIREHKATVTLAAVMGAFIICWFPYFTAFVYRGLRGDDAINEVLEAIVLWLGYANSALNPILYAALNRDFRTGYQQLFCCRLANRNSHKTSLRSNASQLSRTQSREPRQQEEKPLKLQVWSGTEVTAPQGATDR
T7 sequence (P23219 24-599): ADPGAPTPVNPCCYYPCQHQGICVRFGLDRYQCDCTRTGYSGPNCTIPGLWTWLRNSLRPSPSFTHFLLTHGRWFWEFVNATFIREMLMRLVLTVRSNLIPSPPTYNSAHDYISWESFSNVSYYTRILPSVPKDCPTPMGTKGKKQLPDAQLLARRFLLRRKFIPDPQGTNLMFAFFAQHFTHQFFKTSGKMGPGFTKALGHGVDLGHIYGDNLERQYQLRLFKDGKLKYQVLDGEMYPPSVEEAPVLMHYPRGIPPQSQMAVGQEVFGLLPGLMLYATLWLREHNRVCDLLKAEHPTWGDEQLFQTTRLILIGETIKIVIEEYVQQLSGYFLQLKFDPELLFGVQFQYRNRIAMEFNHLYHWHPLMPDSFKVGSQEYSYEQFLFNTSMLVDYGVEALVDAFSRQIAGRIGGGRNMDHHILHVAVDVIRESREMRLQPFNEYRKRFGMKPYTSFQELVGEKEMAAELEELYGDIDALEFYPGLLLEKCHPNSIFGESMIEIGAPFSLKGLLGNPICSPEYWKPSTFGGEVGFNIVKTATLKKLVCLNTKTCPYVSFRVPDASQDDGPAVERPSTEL
T8 sequence (Q08499 303-809): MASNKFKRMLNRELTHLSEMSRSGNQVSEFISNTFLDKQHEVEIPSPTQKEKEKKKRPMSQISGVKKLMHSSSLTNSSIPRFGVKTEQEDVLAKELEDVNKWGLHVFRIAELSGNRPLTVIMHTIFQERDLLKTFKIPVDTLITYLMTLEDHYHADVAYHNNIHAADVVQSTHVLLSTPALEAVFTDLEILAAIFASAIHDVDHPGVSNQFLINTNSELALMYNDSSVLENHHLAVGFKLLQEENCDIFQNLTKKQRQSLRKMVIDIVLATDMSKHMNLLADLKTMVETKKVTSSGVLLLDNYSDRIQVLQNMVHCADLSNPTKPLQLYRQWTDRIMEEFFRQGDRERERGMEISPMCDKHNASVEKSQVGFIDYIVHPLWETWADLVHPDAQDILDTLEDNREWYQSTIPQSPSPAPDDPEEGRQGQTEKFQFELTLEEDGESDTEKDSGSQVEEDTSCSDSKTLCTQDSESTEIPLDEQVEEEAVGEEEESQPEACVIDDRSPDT
Chain of Glutamate channels NMDA (Q00959 23-1464, other chains not shown): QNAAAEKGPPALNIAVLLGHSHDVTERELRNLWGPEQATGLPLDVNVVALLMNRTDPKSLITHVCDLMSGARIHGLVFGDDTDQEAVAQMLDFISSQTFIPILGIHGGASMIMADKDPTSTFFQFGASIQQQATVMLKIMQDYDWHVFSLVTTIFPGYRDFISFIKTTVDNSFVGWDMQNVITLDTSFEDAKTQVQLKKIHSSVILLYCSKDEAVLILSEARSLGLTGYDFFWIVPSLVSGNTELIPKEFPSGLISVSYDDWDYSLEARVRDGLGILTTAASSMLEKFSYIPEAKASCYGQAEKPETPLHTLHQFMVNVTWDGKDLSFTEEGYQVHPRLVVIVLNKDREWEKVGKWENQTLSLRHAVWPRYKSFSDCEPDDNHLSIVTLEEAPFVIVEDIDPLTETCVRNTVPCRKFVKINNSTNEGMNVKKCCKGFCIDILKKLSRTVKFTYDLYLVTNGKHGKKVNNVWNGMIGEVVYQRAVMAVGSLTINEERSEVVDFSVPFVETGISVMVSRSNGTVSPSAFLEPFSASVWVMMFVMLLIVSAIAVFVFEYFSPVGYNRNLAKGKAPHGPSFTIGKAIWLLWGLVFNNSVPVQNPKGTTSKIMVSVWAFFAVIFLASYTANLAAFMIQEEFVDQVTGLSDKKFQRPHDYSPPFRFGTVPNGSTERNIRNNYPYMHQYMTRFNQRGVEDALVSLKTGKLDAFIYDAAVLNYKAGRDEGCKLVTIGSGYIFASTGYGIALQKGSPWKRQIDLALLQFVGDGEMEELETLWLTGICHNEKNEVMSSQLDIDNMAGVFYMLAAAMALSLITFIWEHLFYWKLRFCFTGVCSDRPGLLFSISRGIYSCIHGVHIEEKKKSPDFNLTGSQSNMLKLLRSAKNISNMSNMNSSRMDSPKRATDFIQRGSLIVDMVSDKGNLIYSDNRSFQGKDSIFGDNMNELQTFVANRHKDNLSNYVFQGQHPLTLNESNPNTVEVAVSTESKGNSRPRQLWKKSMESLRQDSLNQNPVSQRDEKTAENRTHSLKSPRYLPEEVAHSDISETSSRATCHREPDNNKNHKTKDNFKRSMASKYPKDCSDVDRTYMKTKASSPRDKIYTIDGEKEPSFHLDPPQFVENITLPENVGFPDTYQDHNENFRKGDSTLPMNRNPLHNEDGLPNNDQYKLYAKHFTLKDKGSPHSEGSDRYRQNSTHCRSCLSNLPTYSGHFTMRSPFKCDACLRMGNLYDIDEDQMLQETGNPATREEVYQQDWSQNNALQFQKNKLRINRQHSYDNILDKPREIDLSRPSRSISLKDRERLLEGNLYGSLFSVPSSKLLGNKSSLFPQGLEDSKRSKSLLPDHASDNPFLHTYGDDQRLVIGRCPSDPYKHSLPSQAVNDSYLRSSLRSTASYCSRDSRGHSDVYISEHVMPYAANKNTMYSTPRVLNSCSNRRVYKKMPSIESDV
T1 sequence (P08588 whole entry): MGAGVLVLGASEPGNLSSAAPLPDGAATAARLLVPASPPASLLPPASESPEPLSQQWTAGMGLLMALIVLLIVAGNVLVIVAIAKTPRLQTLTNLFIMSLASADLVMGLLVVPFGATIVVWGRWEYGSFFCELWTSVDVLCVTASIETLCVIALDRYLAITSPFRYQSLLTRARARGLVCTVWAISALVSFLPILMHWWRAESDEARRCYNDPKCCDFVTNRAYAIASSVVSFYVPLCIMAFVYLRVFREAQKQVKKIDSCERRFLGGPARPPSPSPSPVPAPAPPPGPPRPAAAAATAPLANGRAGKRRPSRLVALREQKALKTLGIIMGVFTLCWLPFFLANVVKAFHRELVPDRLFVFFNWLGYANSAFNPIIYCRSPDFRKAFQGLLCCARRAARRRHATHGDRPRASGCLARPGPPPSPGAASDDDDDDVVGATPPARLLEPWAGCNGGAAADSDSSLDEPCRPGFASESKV
T4 sequence (P41595 whole entry): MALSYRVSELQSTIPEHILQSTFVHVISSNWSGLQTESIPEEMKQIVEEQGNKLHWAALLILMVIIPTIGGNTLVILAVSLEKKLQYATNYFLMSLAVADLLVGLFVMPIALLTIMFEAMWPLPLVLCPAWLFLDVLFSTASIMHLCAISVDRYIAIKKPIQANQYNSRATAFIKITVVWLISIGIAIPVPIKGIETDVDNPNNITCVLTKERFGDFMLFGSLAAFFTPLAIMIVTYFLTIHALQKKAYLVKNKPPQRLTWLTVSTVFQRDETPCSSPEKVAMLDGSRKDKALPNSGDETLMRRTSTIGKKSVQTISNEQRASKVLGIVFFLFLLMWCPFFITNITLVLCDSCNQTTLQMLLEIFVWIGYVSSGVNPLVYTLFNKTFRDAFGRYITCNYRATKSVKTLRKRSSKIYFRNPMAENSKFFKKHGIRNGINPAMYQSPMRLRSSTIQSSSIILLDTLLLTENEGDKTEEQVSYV
T2 sequence (P35367 whole entry): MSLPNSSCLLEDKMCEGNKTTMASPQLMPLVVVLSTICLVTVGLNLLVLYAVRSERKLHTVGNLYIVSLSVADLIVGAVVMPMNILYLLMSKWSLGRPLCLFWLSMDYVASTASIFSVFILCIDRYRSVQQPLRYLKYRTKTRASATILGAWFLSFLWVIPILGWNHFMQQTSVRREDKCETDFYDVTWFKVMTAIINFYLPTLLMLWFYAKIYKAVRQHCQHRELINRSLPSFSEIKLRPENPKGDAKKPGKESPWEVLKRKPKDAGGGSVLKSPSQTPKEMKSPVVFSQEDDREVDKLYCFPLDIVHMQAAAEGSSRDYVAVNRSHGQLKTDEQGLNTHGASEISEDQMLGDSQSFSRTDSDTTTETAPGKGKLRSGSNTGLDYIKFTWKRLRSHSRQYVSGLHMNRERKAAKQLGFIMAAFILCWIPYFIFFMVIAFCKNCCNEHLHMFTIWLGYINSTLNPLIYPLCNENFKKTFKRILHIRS

CC1(C)C(/C=C/C2=C(Oc3ccc(CCC(=O)NCCCC[C@@H]4NC(=O)[C@@H](Cc5ccc(O)cc5)NC(=O)[C@H](CC(=O)O)NC(=O)CNC(=O)[C@H](CCCNC(=N)N)NC4=O)cc3)C(=C/C=C3/N(CCC[N+](C)(C)C)c4ccc(S(=O)(=O)O)cc4C3(C)C)/CCC2)=[N+](CCC[N+](C)(C)C)c2ccc(S(=O)(=O)O)cc21 [cRGD-ZW800-1]
inhibition at 10 µM (Adrenergic β1; [4]): 18% | remaining activity at 10 µM (Adrenergic β1; [5]): 82.3% | inhibition at 10 µM (Histamine H1; [4]): -5% | remaining activity at 10 µM (Histamine H1; [5]): 105% | inhibition at 10 µM (Histamine H2; [4]): -4% | remaining activity at 10 µM (Histamine H2; [5]): 104% | inhibition at 10 µM [1, 6]: 29% | remaining activity at 10 µM [1, 7]: 70.9% | inhibition at 10 µM (5-HT transporter; 10 μM cRGD-ZW800-1, format H, An, performed twice, read-out: % Inhibition of Control Specific Binding): -3% | remaining activity at 10 µM (5-HT transporter; [7]): 103% | inhibition at 10 µM (Glutamate channels NMDA; [4]): 10% | remaining activity at 10 µM (Glutamate channels NMDA; [5]): 90.4% | inhibition at 10 µM [2, 6]: -11% | remaining activity at 10 µM [2, 7]: 111% | inhibition at 10 µM (COX1; 10 μM cRGD-ZW800-1, format H, performed twice, read-out: % Inhibition of Control Specific Binding): -8% | remaining activity at 10 µM (COX1; [7]): 108% | inhibition at 10 µM (PDE4D2; [4]): 10% | remaining activity at 10 µM (PDE4D2; [5]): 90.3% | reduction of fluorescence signal by unlabeled cRGD (HT-29 cells): 32% | TBRs at 4 and 24 h post injection (HT-29 colorectal tumors; HT-29, 1, 10 and 30 nmol dose groups, n = 3 per dose group): > 2 | optimal dose (HT-29 colorectal tumors; mice, doses of 0.25, 1.0, 10, 30 nmol explored, Pearl and FLARE): 10 nmol | TBRs at 4 h post injection (BxPC-3 pancreatic tumors): > 2 | activity at 10 µM (Potassium Channel hERG): 106% | safe starting dose for first in-human studies ([3]; 10% of the HED of the NOAEL (FDA recommendation)): 0.08 mg/kg | human equivalent dose (HED) of the NOAEL ([3]; NOAEL of 5.0 mg/kg in rats adjusted for body surface area): 0.80 mg/kg | toxicology findings ([3]; rats, intravenous injection of 5.0 mg/kg, unpublished data): neither clinical symptoms, nor treatment-related histopathological, biochemical, and hematological abnormalities | no observable adverse event level (NOAEL) ([3]; rats, intravenous injection, unpublished data): at least 5.0 mg/kg | concentration inside tumors (tumors): approximately 0.2 μM
